From ChEMBL document CHEMBL1201861, “Genomics of Drug Sensitity in Cancer screening data, Wellcome Trust Sanger Institute”

Assays:
Assay in all cases: cells
HuCCT-1 = format: functional, cell-based, HuCCT1; details: Homo sapiens;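 note: growth inhibition of HuCCT-1 cells, read out by a cell viability assay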
Description: SANGER: Inhibition of human HuCCT1 cell growth in a cell viability assay.

SF-295 = format: functional, cell-based; details: Homo sapiens;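 note: growth inhibition of SF-295 cells, read out with a cell viability assay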
Description: SANGER: Inhibition of human SF295 cell growth in a cell viability assay.

CaR-1 = format: functional, cell-based; details: Homo sapiens;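 note: growth inhibition of human CaR-1 cancer cells, read out with a cell viability assay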
Description: SANGER: Inhibition of human CaR-1 cell growth in a cell viability assay.

MOLT-13 = format: functional, cell-based; details: Homo sapiens;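 note: IC50 for suppression of MOLT-13 cell growth, read out with a cell viability assay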
Description: SANGER: Inhibition of human MOLT-13 cell growth in a cell viability assay.

Detroit 562 = format: functional, cell-based; details: Homo sapiens;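 note: growth inhibition of human Detroit 562 cells, read out by a cell viability assay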
Description: SANGER: Inhibition of human Detroit562 cell growth in a cell viability assay.

GAMG = format: functional, cell-based; details: Homo sapiens;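 note: cell growth inhibition measured by a viability assay in the GAMG human cell line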
Description: SANGER: Inhibition of human GAMG cell growth in a cell viability assay.

H4 = format: functional, cell-based; details: Homo sapiens
Description: SANGER: Inhibition of human H4 cell growth in a cell viability assay.

JEG-3 = format: functional, cell-based; details: Homo sapiens;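 note: growth inhibition of human JEG-3 cells, read out with a cell viability assay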
Description: SANGER: Inhibition of human JEG-3 cell growth in a cell viability assay.

CAL-120 = format: functional, cell-based; details: Homo sapiens;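 note: cell growth inhibition, read out as cell viability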
Description: SANGER: Inhibition of human CAL-120 cell growth in a cell viability assay.

HGC-27 = format: functional, cell-based; details: Homo sapiens;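 note: growth inhibition of human HGC-27 cells, read out in a cell viability assay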
Description: SANGER: Inhibition of human HGC-27 cell growth in a cell viability assay.

KYSE-510 = format: functional, cell-based; details: Homo sapiens;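 note: cell viability readout used to measure how strongly growth of the cell line is suppressed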
Description: SANGER: Inhibition of human KYSE-510 cell growth in a cell viability assay.

DoTc2-4510 = format: functional, cell-based; details: Homo sapiens
HCC1937 = format: functional, cell-based; details: Homo sapiens;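 note: growth inhibition measured with a cell viability read-out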
Description: SANGER: Inhibition of human HCC1937 cell growth in a cell viability assay.

PANC-08-13 = format: functional, cell-based; details: Homo sapiens;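 note: cell growth inhibition, measured with a cell viability assay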
Description: SANGER: Inhibition of human PANC-08-13 cell growth in a cell viability assay.

UMC-11 = format: functional, cell-based; details: Homo sapiens;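 note: growth inhibition of UMC-11 cells, read out with a cell viability assay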
Description: SANGER: Inhibition of human UMC-11 cell growth in a cell viability assay.

HT1197 = format: functional, cell-based, HT-1197; details: Homo sapiens
Description: SANGER: Inhibition of human HT-1197 cell growth in a cell viability assay.

HuP-T4 = format: functional, cell-based; details: Homo sapiens;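 note: cell viability assay measuring how much HuP-T4 cell growth is inhibited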
Description: SANGER: Inhibition of human HuP-T4 cell growth in a cell viability assay.

NCI-H2405 = format: functional, cell-based; details: Homo sapiens;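 note: growth inhibition of the human cell line, read out with a cell viability assay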
Description: SANGER: Inhibition of human NCI-H2405 cell growth in a cell viability assay.

KYSE-140 = format: functional, cell-based; details: Homo sapiens;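 note: cell viability assay measuring growth inhibition in human KYSE-140 cells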
Description: SANGER: Inhibition of human KYSE-140 cell growth in a cell viability assay.

BPH-1 = format: functional, cell-based; details: Homo sapiens;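 note: cell viability assay measuring growth inhibition of human BPH-1 cells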
Description: SANGER: Inhibition of human BPH-1 cell growth in a cell viability assay.

PFSK-1 = format: functional, cell-based; details: Homo sapiens;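 note: cell viability assay measuring how strongly compounds suppress growth of human PFSK-1 cells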
Description: SANGER: Inhibition of human PFSK-1 cell growth in a cell viability assay.

639-V = format: functional, cell-based; details: Homo sapiens;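 note: growth inhibition of 639-V cells, read out with a cell viability assay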
Description: SANGER: Inhibition of human 639-V cell growth in a cell viability assay.

NCI-H727 = format: functional, cell-based; details: Homo sapiens;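 note: growth inhibition of human NCI-H727 cells, read out with a cell viability assay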
Description: SANGER: Inhibition of human NCI-H727 cell growth in a cell viability assay.

LN-405 = format: functional, cell-based; details: Homo sapiens
Description: SANGER: Inhibition of human LN-405 cell growth in a cell viability assay.

A673 = format: functional, cell-based; details: Homo sapiens;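 note: growth inhibition of human A673 cells, read out through a cell viability assay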
Description: SANGER: Inhibition of human A673 cell growth in a cell viability assay.

NCI-H2170 = format: functional, cell-based; details: Homo sapiens;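 note: cell viability assay measuring growth inhibition of human NCI-H2170 cancer cells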
Description: SANGER: Inhibition of human NCI-H2170 cell growth in a cell viability assay.

KMOE-2 = format: functional, cell-based, Homo sapiens; details: Homo sapiens, KMOE-2;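 note: growth inhibition of human KMOE-2 cells, read out with a cell viability assay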
Description: SANGER: Inhibition of human KMOE-2 cell growth in a cell viability assay.

RPMI-2650 = format: functional, cell-based; details: Homo sapiens
Description: SANGER: Inhibition of human RPMI-2650 cell growth in a cell viability assay.

COLO-680N = format: functional, cell-based; details: Homo sapiens;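 note: cell viability assay used to measure inhibition of COLO-680N cell growth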
Description: SANGER: Inhibition of human COLO-680N cell growth in a cell viability assay.

T47D = format: functional, cell-based; details: Homo sapiens;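 note: growth inhibition of human T47D cells, measured with a cell viability assay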
Description: SANGER: Inhibition of human T47D cell growth in a cell viability assay.

HLE = format: functional, cell-based; details: Homo sapiens;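 note: growth inhibition of human HLE cells, read out by a cell viability assay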
Description: SANGER: Inhibition of human HLE cell growth in a cell viability assay.

NUGC-3 = format: functional, cell-based; details: Homo sapiens;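 note: growth inhibition of human NUGC-3 cells, read out with a cell viability assay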
Description: SANGER: Inhibition of human NUGC-3 cell growth in a cell viability assay.

HSC-3 = format: functional, cell-based; details: Homo sapiens
Description: SANGER: Inhibition of human HSC-3 cell growth in a cell viability assay.

NCI-H2122 = format: functional, cell-based; details: Homo sapiens;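 note: growth inhibition of the cells, read out with a cell viability assay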
Description: SANGER: Inhibition of human NCI-H2122 cell growth in a cell viability assay.

SW948 = format: functional, cell-based; details: Homo sapiens;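 note: growth inhibition of SW948 cells, read out with a cell viability assay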
Description: SANGER: Inhibition of human SW948 cell growth in a cell viability assay.

AU565 = format: functional, cell-based; details: Homo sapiens;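 note: cell viability assay measuring growth inhibition of human AU565 cells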
Description: SANGER: Inhibition of human AU565 cell growth in a cell viability assay.

GCT = format: functional, cell-based; details: Homo sapiens;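 note: GCT cell line proliferation inhibition, read out with a cell viability assay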
Description: SANGER: Inhibition of human GCT cell growth in a cell viability assay.

UMUC3 = format: functional, cell-based; details: Homo sapiens;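 note: growth inhibition of human UM-UC-3 cells, read out with a cell viability assay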
Description: SANGER: Inhibition of human UM-UC-3 cell growth in a cell viability assay.

COLO-678 = format: functional, cell-based; details: Homo sapiens
Description: SANGER: Inhibition of human COLO-678 cell growth in a cell viability assay.

NB14 = format: functional, cell-based, Homo sapiens; details: Homo sapiens, NB14;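 note: growth inhibition of NB14 cells measured with a cell viability assay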
Description: SANGER: Inhibition of human NB14 cell growth in a cell viability assay.

Compound: CN(NC(=O)CC(=O)NN(C)C(=S)c1ccccc1)C(=S)c1ccccc1 [ELESCLOMOL]
- IC50 (HuCCT-1): 5.52 nM
- IC50 (SF-295): 9.2 nM
- IC50 (CaR-1): > 200 nM
- IC50 (MOLT-13): > 200 nM
- IC50 (Detroit 562): 68.9 nM
- IC50 (GAMG): 2.51 nM
- IC50 (H4): 7.25 nM
- IC50 (JEG-3): 8.84 nM
- IC50 (CAL-120): 14 nM
- IC50 (HGC-27): 7.59 nM
- IC50 (KYSE-510): 110 nM
- IC50 (DoTc2-4510): > 200 nM
- IC50 (HCC1937): 35.2 nM
- IC50 (PANC-08-13): 9.63 nM
- IC50 (UMC-11): > 200 nM
- IC50 (HT1197): 21.8 nM
- IC50 (HuP-T4): 20.7 nM
- IC50 (NCI-H2405): 51 nM
- IC50 (KYSE-140): 21 nM
- IC50 (BPH-1): 83.1 nM
- IC50 (PFSK-1): 12.7 nM
- IC50 (639-V): 16.7 nM
- IC50 (NCI-H727): > 200 nM
- IC50 (LN-405): 87.8 nM
- IC50 (A673): 11.6 nM
- IC50 (NCI-H2170): 28.8 nM
- IC50 (KMOE-2): 145 nM
- IC50 (RPMI-2650): 34.1 nM
- IC50 (COLO-680N): 187 nM
- IC50 (T47D): 16.8 nM
- IC50 (HLE): 9.93 nM
- IC50 (NUGC-3): 7.33 nM
- IC50 (HSC-3): 3.02 nM
- IC50 (NCI-H2122): 130 nM
- IC50 (SW948): > 200 nM
- IC50 (AU565): 59.1 nM
- IC50 (GCT): 23.4 nM
- IC50 (UMUC3): 7.06 nM
- IC50 (COLO-678): 42.5 nM
- IC50 (NB14): 6.64 nM
